Laboratory results reported in ChEMBL document CHEMBL3585343, “Fragment-Based Discovery of Low-Micromolar ATAD2 Bromodomain Inhibitors” (J Med Chem, 2015).
Converted amounts (≈) assume the structure as drawn.

What was measured:
[1] = Distribution coefficient, log D of the compound at pH 7.4 by chromatographic method; assay type: physicochemical
[2] = biological target: Bromodomain-containing protein 4 (Homo sapiens, UniProt O60885, Y390A)
[3] = biological target: Bromodomain-containing protein 3 (Homo sapiens, UniProt Q15059, Y348A); assay: Binding affinity to 6-His-Thr BRD3 (1 to 435) BD1 (unknown origin) harboring BD2 Y348A mutant
Chain of Bromodomain-containing protein 3 (Homo sapiens, UniProt Q15059, Y348A) (Q15059 2-726 Y348A limits assumed): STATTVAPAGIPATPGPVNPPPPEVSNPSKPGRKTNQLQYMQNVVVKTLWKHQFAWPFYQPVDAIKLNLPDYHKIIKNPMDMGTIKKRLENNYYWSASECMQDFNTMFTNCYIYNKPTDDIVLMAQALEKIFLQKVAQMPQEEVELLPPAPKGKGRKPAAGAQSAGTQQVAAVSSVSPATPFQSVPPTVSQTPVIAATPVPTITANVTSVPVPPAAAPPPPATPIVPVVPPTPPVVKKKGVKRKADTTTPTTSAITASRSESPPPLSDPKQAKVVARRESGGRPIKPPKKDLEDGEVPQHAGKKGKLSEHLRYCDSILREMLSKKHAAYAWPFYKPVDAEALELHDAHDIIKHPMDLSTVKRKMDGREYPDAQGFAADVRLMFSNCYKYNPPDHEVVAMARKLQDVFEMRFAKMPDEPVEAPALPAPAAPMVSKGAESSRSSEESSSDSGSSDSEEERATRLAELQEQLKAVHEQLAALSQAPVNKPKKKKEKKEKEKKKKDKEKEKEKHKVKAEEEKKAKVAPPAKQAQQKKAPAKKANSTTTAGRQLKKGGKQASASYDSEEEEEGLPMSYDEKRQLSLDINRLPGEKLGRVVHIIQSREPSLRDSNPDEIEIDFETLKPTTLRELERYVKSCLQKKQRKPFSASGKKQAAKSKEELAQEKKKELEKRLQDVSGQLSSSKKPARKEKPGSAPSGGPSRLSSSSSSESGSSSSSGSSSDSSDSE

[4] = biological target: Bromodomain-containing protein 3 (Homo sapiens, UniProt Q15059, Y37A); assay: Binding affinity to BRD3 6-His-Thr BRD3 (1 to 435) BD2 (unknown origin) harboring BD1 Y37A mutant
Chain of Bromodomain-containing protein 3 (Homo sapiens, UniProt Q15059, Y37A) (Q15059 whole entry, looked up, stated change not applied): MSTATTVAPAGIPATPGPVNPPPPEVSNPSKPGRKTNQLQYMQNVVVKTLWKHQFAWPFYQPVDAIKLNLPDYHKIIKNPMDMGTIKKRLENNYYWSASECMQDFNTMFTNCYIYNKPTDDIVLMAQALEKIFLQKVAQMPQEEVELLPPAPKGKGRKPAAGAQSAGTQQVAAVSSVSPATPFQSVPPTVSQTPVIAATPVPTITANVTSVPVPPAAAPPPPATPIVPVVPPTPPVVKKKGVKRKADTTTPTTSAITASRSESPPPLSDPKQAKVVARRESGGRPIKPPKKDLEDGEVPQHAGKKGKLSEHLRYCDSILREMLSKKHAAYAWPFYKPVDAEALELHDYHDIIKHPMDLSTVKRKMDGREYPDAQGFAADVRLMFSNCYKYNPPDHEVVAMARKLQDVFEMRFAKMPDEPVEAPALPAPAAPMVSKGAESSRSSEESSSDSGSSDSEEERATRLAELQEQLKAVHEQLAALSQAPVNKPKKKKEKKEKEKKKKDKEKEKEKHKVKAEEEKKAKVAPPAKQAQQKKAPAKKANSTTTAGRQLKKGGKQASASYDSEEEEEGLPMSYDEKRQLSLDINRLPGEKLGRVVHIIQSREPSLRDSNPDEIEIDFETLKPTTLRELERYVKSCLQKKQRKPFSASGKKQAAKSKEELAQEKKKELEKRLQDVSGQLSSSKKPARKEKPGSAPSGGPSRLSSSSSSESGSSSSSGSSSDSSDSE

[5] = biological target: Bromodomain testis-specific protein (Homo sapiens, UniProt Q58F21, Y309A); assay: Binding affinity to 6-His-FLAG-Tev-BRDT BD1 (1 to 397) (unknown origin) harboring BD2 Y309A mutant
[6] = biological target: Bromodomain testis-specific protein (Homo sapiens, UniProt Q58F21, Y66A); assay: Binding affinity to 6-His-FLAG-Tev-BRDT BD2 (1 to 397) (unknown origin) harboring BD1 Y66A mutant
[7] = Solubility of the compound in phosphate buffered saline at pH 7.4 after 1 hr by CLND method; assay type: physicochemical
[8] = Lipophilicity, log P of the compound; assay type: physicochemical; details: octanol/water
[9] = Permeability across phosphatidyl choline membrane at pH 7.4 after 3 hrs by HPLC with UV detection method; assay type: ADME; details: not told, read-out: permeability
[10] = biological target: Bromodomain-containing protein 2 (Homo sapiens, UniProt P25440, Y386A)
Chain of Bromodomain-containing protein 2 (Homo sapiens, UniProt P25440, Y386A) (P25440 whole entry Y386A): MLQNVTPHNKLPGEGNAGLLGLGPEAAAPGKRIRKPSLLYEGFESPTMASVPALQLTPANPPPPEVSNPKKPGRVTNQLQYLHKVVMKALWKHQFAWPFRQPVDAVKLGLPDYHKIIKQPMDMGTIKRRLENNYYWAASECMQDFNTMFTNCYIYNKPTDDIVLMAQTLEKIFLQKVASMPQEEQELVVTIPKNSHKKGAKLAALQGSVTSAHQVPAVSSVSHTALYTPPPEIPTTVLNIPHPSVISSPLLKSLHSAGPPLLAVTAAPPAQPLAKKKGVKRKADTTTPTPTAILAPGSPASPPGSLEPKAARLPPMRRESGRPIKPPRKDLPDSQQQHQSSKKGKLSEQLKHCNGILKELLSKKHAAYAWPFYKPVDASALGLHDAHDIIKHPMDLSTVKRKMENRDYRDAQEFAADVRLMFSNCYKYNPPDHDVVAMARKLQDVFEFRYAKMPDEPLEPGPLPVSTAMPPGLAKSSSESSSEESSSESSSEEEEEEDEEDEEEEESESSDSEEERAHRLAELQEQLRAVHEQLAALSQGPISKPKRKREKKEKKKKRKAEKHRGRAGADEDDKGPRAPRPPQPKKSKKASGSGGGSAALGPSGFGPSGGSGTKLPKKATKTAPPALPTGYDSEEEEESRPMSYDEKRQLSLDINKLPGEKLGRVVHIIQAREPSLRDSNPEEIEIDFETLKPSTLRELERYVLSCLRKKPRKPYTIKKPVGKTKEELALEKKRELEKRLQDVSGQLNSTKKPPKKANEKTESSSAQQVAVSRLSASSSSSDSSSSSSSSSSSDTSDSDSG

[11] = biological target: Bromodomain-containing protein 2 (Homo sapiens, UniProt P25440, Y113A)
Chain of Bromodomain-containing protein 2 (Homo sapiens, UniProt P25440, Y113A) (P25440 whole entry Y113A): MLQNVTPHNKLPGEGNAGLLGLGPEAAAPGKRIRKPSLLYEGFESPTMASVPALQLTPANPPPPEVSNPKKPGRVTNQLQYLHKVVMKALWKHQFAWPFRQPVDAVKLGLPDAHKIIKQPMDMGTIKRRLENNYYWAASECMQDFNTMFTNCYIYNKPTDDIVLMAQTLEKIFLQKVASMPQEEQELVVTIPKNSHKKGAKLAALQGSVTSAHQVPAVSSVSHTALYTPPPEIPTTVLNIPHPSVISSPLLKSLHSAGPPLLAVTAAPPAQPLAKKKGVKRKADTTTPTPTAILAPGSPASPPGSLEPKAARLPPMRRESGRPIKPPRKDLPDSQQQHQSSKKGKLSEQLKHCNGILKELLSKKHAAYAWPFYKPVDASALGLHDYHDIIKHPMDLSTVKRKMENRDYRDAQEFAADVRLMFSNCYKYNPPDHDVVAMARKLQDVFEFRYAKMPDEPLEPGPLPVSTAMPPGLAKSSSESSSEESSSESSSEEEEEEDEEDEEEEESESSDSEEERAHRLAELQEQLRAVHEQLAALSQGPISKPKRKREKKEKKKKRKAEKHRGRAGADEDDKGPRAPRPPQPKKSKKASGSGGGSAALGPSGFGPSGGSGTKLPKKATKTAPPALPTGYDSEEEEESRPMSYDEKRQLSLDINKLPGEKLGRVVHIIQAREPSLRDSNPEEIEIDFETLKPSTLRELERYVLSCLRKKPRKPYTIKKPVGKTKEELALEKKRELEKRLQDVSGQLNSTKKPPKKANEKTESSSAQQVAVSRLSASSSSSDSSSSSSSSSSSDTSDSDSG

[12] = biological target: Bromodomain-containing protein 4 (Homo sapiens, UniProt O60885, Y97A)

| SMILES | chromatographic logD [1] | IC50 [2] | also measured |
| --- | --- | --- | --- |
| Cc1cc2c(-c3cc[nH]n3)cnc(NC3CCNCC3)c2[nH]c1=O | 0.4 | 1.26 µM | – |
| Cc1ncccc1-c1cnc(NC2CCNCC2)c2[nH]c(=O)c(C)cc12 | 0.8 | 6.31 µM | – |
| Cc1ccc(-c2cnc(NC3CCNCC3)c3[nH]c(=O)c(C)cc23)cn1 | 1.1 | 1 µM | – |
| Cc1cncc(-c2cnc(NC3CCNCC3)c3[nH]c(=O)c(C)cc23)c1 | 1.2 | – | IC50 [3]: 7.94 µM; IC50 [4]: 20 µM; IC50 [5]: 7.94 µM; IC50 [6]: 31.6 µM; solubility kinetic at 1 h [7]: ≥ 207 µM; logP [8]: 2.4; Papp at 3 h [9]: < 0.3 ×10⁻⁶ cm/s; IC50 [10]: 6.31 µM; IC50 [11]: 20 µM |
| Cc1ccncc1-c1cnc(NC2CCNCC2)c2[nH]c(=O)c(C)cc12 | 0.9 | 3.16 µM | – |
| COc1ccc(-c2cnc(NC3CCNCC3)c3[nH]c(=O)c(C)cc23)cn1 | 1.6 | 1.26 µM | – |
| COc1cncc(-c2cnc(NC3CCNCC3)c3[nH]c(=O)c(C)cc23)c1 | 1.1 | 1.26 µM | IC50 [3]: 6.31 µM; IC50 [4]: 20 µM; IC50 [5]: 6.31 µM; IC50 [6]: 25.1 µM; solubility kinetic at 1 h [7]: 250 µM (≈ 91.4 µg/mL); logP [8]: 2.7; Papp at 3 h [9]: < 0.3 ×10⁻⁶ cm/s; IC50 [12]: 15.8 µM; IC50 [10]: 3.98 µM; IC50 [11]: 20 µM |
| Cc1cc2c(-c3cncc(Cl)c3)cnc(NC3CCNCC3)c2[nH]c1=O | 1.7 | 6.31 µM | – |
| Cc1cc2c(-c3cncc(C(N)=O)c3)cnc(NC3CCNCC3)c2[nH]c1=O | -0.2 | 3.98 µM | – |
| Cc1cncc(-c2cnc(NC3CCNCC3)c3[nH]c(=O)c(C)cc23)c1C | 1.4 | 7.94 µM | – |
| Cc1cc2c(-c3cncc(N)c3)cnc(NC3CCNCC3)c2[nH]c1=O | 0 | 2 µM | – |
| Cc1cc2c(-c3cncc(NS(C)(=O)=O)c3)cnc(NC3CCNCC3)c2[nH]c1=O | 0.2 | 0.794 µM | – |
| Cc1cc2c(-c3cncc(COC(N)=O)c3)cnc(NC3CCNCC3)c2[nH]c1=O | 0.3 | – | – |
| Cc1cc2c(-c3cncnc3)cnc(NC3CCNCC3)c2[nH]c1=O | 0.3 | 15.8 µM | – |
| Cc1cc2ccccc2[nH]c1=O | – | 39.8 µM | – |
| Cc1cc2cccc(NCCN(C)C)c2[nH]c1=O | – | 25.1 µM | – |
| CCCNc1cccc2cc(C)c(=O)[nH]c12 | – | > 50.1 µM | – |
| Cc1cc2cccc(NCCO)c2[nH]c1=O | – | 39.8 µM | – |
| Cc1cc2cccc(NCCCO)c2[nH]c1=O | – | 5.01 µM | – |
| Cc1cc2cccc(NCc3ncc[nH]3)c2[nH]c1=O | – | 50.1 µM | – |
| COCCNc1cccc2cc(C)c(=O)[nH]c12 | – | > 50.1 µM | – |

| SMILES | chromatographic logD [1] | IC50 [2] | also measured |
| --- | --- | --- | --- |
| Cc1cc2cccc(NCCC(=O)O)c2[nH]c1=O | – | > 50.1 µM | – |
| Cc1cc2cccc(NCCCN(C)C)c2[nH]c1=O | – | 10 µM | – |
| Cc1cc2ccnc(NC3CCNCC3)c2[nH]c1=O | 0.6 | – | – |
| Cc1cc2ccnc(NCCC3CCNCC3)c2[nH]c1=O | – | 12.6 µM | – |
| Cc1cc2ccnc(NCCC3CCCNC3)c2[nH]c1=O (configuration not stated) | – | 25.1 µM | – |
| Cc1cc2ccnc(NCC(C)(C)CN(C)C)c2[nH]c1=O | – | 158 µM | – |
| Cc1cc2ccnc(N[C@@H]3CCCNC3)c2[nH]c1=O | – | 15.8 µM | – |
| Cc1cc2ccnc(NC3CCN(C)CC3)c2[nH]c1=O | 0.5 | – | – |
| Cc1cc2ccnc(NC3CCN(C4CC4)CC3)c2[nH]c1=O | 2.8 | – | – |
| COCCN1CCC(Nc2nccc3cc(C)c(=O)[nH]c23)CC1 | 1.4 | – | – |
| COCCCN1CCC(Nc2nccc3cc(C)c(=O)[nH]c23)CC1 | 1.4 | 3.98 µM | – |
| Cc1cc2ccnc(N[C@H]3C[C@H]4CC[C@@H](C3)N4C)c2[nH]c1=O | 1.2 | – | – |
| Cc1cc2ccnc(N[C@@H]3C[C@H]4CC[C@@H](C3)N4C)c2[nH]c1=O | 1 | – | – |
| Cc1cc2c(-c3ccccc3)cnc(NC3CCNCC3)c2[nH]c1=O | 2.5 | 0.794 µM | – |
| CC(=O)N1CCc2cc(-c3cnc(NC4CCNCC4)c4[nH]c(=O)c(C)cc34)ccc21 | 1.4 | 1 µM | – |
| Cc1cc2c(-c3cccc(O)c3)cnc(NC3CCNCC3)c2[nH]c1=O | 1.3 | 0.631 µM | – |
| Cc1cc2c(-c3cccc4[nH]ncc34)cnc(NC3CCNCC3)c2[nH]c1=O | 1.2 | 0.126 µM | – |
| Cc1cc2c(-c3cccnc3)cnc(NC3CCNCC3)c2[nH]c1=O | 0.8 | 2 µM | – |
| Cc1cc2c(-c3cn[nH]c3)cnc(NC3CCNCC3)c2[nH]c1=O | 0 | 0.794 µM | – |
| Cc1cc2c(-c3ccncc3)cnc(NC3CCNCC3)c2[nH]c1=O | 1 | 3.16 µM | – |
| Cc1cc2c(-c3ccccn3)cnc(NC3CCNCC3)c2[nH]c1=O | 1 | 5.01 µM | – |
